Experimental data published in article PMC7238120, “Strong and Selective Inhibitory Effects of the Biflavonoid Selamariscina A against CYP2C8 and CYP2C9 Enzyme Activities in Human Liver Microsomes” (Pharmaceutics, 2020).
Like-named read-outs stand apart in the source and are kept apart here.

How the values were obtained:
Type in all cases: in vitro ADME
[1] = molecular target: T1, CYP2C19 (Homo sapiens, UniProt P33261); test: Inhibition of CYP2C19 (omeprazole) activity in pooled human liver microsomes; conditions: substrate omeprazole 20 µM; pooled HLMs; read-out: IC50, P450 2C19
T1 construct: incubation mixtures containing pooled human liver microsomes (HLMs, XTreme 200, XenoTech); tissue XenoTech XTreme 200; host or cells: pooled human liver microsomes
T1 sequence (P33261 whole entry): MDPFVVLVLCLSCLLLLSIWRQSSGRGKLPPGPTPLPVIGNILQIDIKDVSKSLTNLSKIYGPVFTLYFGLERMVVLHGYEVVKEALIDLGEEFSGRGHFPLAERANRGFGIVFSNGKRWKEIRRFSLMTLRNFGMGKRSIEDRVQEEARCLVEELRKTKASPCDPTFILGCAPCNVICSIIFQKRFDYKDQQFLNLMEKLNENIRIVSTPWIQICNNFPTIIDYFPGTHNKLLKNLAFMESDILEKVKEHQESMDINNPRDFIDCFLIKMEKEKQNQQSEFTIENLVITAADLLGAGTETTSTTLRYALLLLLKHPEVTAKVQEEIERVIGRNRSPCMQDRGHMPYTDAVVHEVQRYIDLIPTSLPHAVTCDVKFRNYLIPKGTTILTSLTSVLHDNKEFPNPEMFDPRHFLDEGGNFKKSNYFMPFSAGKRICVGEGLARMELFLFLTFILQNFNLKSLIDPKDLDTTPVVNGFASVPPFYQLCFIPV
Procedure: (§1) The inhibitory potential of the five biflavonoids on the metabolism of nine P450 probe substrates was evaluated using previously developed methods with minor modifications. Biflavonoids were dissolved in methanol. The final concentration of methanol in the incubation mixture was 1.0% (v/v). We used these P450 probe substrates: phenacetin for CYP1A2, coumarin for CYP2A6, bupropion for CYP2B6, amodiaquine for CYP2C8, diclofenac for CYP2C9, omeprazole for CYP2C19, dextromethorphan for CYP2D6, chlorzoxazone for CYP2E1 and midazolam for CYP3A (Table 1). The incubation mixtures containing pooled human liver microsomes (HLMs, XTreme 200, XenoTech), P450 probe substrates, and inhibitor (0~20 µM) were pre-incubated at 37 °C for 5 min. The concentration range of the inhibitor varied (0, 0.002, 0.005, 0.02, 0.05, and 0.2 µM for CYP2C8; 0, 0.02, 0.05, 0.2, 0.5, and 2 µM for CYP2C9; 0, 0.5, 2, 5, 10, and 20 µM for other P450 isoforms). After pre-incubation, a reduced nicotinamide adenine dinucleotide phosphate (NADPH) generation system containing 1 unit/ml G6PDH, 1.3 mM β- nicotinamide adenine dinucleotide phosphate (β- NADP^+), 3.3 mM MgCl2, and 3.3 mM G6P was added to initiate a reaction, and further incubated for 10 min at 37 °C. The reaction was stopped by adding 50 μL of ice-cold acetonitrile containing 7 nM trimipramine (internal standard, IS). After centrifugation at 18,000 g (5 min, 4 °C), aliquots of supernatants were analyzed by LC–MS/MS (Shimadzu LCMS 8060 system, Shimadzu, Kyoto, Japan). All microsomal incubations were conducted in triplicate.
(§2) All metabolites and the IS were separated on a Kinetex XB-C18 column (100 × 2.10 mm, 2.6 μm, 100 Å; Phenomenex, Torrance, CA, USA) and analyzed using a Shimadzu LCMS 8060 triple-quadrupole mass spectrometer coupled with a Nexera X2 ultra high-performance liquid chromatography system (Shimadzu, Kyoto, Japan) equipped with an electrospray ionization interface. The mobile phase consisted of 0.1% formic acid in water (A) and 0.1% formic acid in acetonitrile (B). The elution condition was set as 8% B (0–0.5 min), 8%→60% B (0.5–5 min), 60% B (5–6 min), 60%→8% B (6–6.1 min) and 8% B (6.1–9 min) for the analysis of metabolites of P450 probe substrates and set as 0%→40% B (0–1 min), 40%→50% B (1–5 min), 50%→0% B (5–5.1 min), and 0% B (5.1–8 min) for the analysis of metabolites of UGT probe substrates. The flow rate was 0.2 mL/min. Electrospray ionization was performed in positive-ion mode at 4000 V or in negative-ion mode at −3500 V. The optimum operating conditions were determined as follows: vaporizer temperature, 300 °C; capillary temperature, 350 °C; collision gas (argon) pressure, 1.5 mTorr. Quantitation was conducted in selected reaction monitoring (SRM) modes with the precursor-to-product ion transition for each metabolite (Table 1 and Table 2).
(§3) We analyzed the data with Shimadzu LabSolution LC–MS software. The IC50 values were calculated by WinNonlin software (Pharsight, Mountain View, CA, USA). The type of inhibition and the apparent kinetic parameters for inhibitory activity (Ki) were determined by following several criteria: visual inspection of Dixon plots, Lineweaver–Burk double reciprocal plots, and secondary plots of Lineweaver–Burk plots versus biflavonoid concentrations, the size of the sum of squares of the residuals, Akaike Information Criteria values, the S.E. and 95% confidence interval of the parameter estimates from the nonlinear regression analysis using the WinNonlin software. The models tested included competitive, competitive partial, noncompetitive, noncompetitive partial, uncompetitive, uncompetitive partial, and mixed-type inhibition.

[2] = molecular target: T2, CYP2E1 (Homo sapiens, UniProt P05181); test: Inhibition of CYP2E1 (chlorzoxazone) activity in pooled human liver microsomes; conditions: substrate chlorzoxazone 50 µM; pooled HLMs; read-out: IC50, P450 2E1
T2 construct: incubation mixtures containing pooled human liver microsomes (HLMs, XTreme 200, XenoTech); tissue XenoTech XTreme 200; host or cells: pooled human liver microsomes
T2 sequence (P05181 whole entry): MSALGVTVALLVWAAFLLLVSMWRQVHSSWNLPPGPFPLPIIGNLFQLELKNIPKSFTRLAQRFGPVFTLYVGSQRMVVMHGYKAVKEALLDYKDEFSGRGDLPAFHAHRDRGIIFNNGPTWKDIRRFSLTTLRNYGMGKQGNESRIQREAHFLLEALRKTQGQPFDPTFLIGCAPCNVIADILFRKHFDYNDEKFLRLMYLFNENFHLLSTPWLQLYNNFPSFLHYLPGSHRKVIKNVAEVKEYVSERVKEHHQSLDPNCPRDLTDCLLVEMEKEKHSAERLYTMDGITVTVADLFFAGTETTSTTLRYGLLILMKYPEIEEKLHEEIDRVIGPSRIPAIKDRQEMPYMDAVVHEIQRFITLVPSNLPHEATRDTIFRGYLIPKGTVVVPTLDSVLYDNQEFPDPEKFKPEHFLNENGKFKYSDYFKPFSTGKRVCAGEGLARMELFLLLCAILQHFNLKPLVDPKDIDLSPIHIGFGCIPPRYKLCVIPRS
Procedure: as §1, §2, §3

[3] = molecular target: CYP3A (Homo sapiens, UniProt P08684); test: Inhibition of CYP3A-catalyzed midazolam 1'-hydroxylation in pooled human liver microsomes
CYP3A, sequence (P08684 2-503): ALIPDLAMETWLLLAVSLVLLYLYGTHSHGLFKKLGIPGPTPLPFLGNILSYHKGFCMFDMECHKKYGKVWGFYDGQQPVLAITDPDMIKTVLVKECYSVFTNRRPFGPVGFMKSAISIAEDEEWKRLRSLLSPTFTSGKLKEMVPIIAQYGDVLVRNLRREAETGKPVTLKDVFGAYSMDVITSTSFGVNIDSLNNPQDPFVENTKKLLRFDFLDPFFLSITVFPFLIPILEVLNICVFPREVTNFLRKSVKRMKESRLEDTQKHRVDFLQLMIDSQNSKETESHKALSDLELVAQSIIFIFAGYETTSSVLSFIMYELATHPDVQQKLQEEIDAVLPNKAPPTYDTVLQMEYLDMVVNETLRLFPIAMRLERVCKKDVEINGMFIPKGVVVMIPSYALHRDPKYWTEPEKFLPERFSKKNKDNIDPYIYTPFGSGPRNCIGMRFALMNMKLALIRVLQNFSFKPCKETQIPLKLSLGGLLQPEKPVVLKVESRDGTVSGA
Procedure: The inhibitory potential of the five biflavonoids on the metabolism of nine P450 probe substrates was evaluated using previously developed methods with minor modifications. Biflavonoids were dissolved in methanol. The final concentration of methanol in the incubation mixture was 1.0% (v/v). We used these P450 probe substrates: phenacetin for CYP1A2, coumarin for CYP2A6, bupropion for CYP2B6, amodiaquine for CYP2C8, diclofenac for CYP2C9, omeprazole for CYP2C19, dextromethorphan for CYP2D6, chlorzoxazone for CYP2E1 and midazolam for CYP3A (Table 1). […] The reaction was stopped by adding 50 μL of ice-cold acetonitrile containing 7 nM trimipramine (internal standard, IS). After centrifugation at 18,000 g (5 min, 4 °C), aliquots of supernatants were analyzed by LC-MS/MS (Shimadzu LCMS 8060 system, Shimadzu, Kyoto, Japan). All microsomal incubations were conducted in triplicate. We used HLMs to determine the mechanisms and constants (Ki values) for […] A inhibition of CYP1A2, CYP2B6, CYP2C8, CYP2C9 and CYP3A. […] The substrates were used at concentrations approximately near to their respective Km values. […] The other conditions were the same as in the cytochrome P450 inhibition study. […] Phenomenex, Torrance, CA, USA) and analyzed using a Shimadzu LCMS 8060 triple-quadrupole mass spectrometer coupled with a Nexera X2 ultra high-performance liquid chromatography system (Shimadzu, Kyoto, Japan) equipped with an electrospray ionization interface. The mobile phase consisted of 0.1% formic acid in water (A) and 0.1% formic acid in acetonitrile (B). […] The flow rate was 0.2 mL/min. Electrospray ionization was performed in positive-ion mode at 4000 V or in negative-ion mode at -3500 V. […] Quantitation was conducted in selected reaction monitoring (SRM) modes with the precursor-to-product ion transition for each metabolite (Table 1 and Table 2). We analyzed the data with Shimadzu LabSolution LC-MS software. The IC50 values were calculated by WinNonlin software (Pharsight, Mountain View, CA, USA). The type of inhibition and the apparent kinetic parameters for inhibitory activity (Ki) were determined by following several criteria: visual inspection of Dixon plots, Lineweaver-Burk double reciprocal plots, and secondary plots of Lineweaver-Burk plots versus biflavonoid concentrations, the size of the sum of squares of the residuals, Akaike Information Criteria values, the S.E. and 95% confidence interval of the parameter estimates from the nonlinear regression analysis using the WinNonlin software. The models tested included competitive, competitive partial, noncompetitive, noncompetitive partial, uncompetitive, uncompetitive partial, and mixed-type inhibition.

[4] = human, pooled human liver microsomes, probe midazolam (5 µM), substrate midazolam 5 µM, pooled HLMs, read-out: IC50, P450 3A

Row | SMILES | IC50 [1] [µM] | IC50 [2] [µM] | IC50 at 10 min ([3]; human, microsomes) [µM] | IC50 at 10 min [3, 4] [µM] | Mode of Inhibition, CYP3A midazolam ([3]; HLMs) | Ki at 10 min ([3]; human, pooled human liver microsomes, probe midazolam (0.5, 2, 5 μM), HLMs, average ± standard error, triplicate) [µM]
1 | O=c1cc(-c2ccc(O)c(-c3c(O)cc(O)c4c(=O)cc(-c5ccc(O)cc5)oc34)c2)oc2cc(O)cc(O)c12 [amentoflavone] | 3.4 | 3.3 | 1.3 |  |  | 
2 | O=c1cc(-c2ccc(O)cc2)oc2c(-c3c(O)cc(O)c4c(=O)cc(-c5ccc(O)cc5)oc34)c(O)cc(O)c12 [cupressuflavone] | 3 | 2.3 |  | 1.5 |  | 
3 | CC(C)(O)c1ccccc1CC[C@@H](SCC1(CC(=O)O)CC1)c1cccc(/C=C/c2ccc3ccc(Cl)cc3n2)c1 [montelukast, reference compound] | > 50 | > 50 | > 50 |  |  | 
4 | O=c1cc(-c2ccc(O)c(-c3c(O)cc4oc(-c5ccc(O)cc5)cc(=O)c4c3O)c2)oc2cc(O)cc(O)c12 [robustaflavone] | 6.4 | 2.9 |  | 1.2 |  | 
5 | O=C1CC(c2cc(-c3c(O)ccc4c(=O)cc(-c5ccc(O)cc5)oc34)c(O)cc2O)Oc2cc(O)cc(O)c21 (centres unmarked) [selamariscina A] | 13.3 | > 20 |  | 2.7 | Noncompetitive | 4.5 ± 0.5
6 | O=c1cc(-c2ccc(O)c(-c3c(-c4ccc(O)cc4)oc4cc(O)cc(O)c4c3=O)c2)oc2cc(O)cc(O)c12 [taiwaniaflavone] | 5 | 6 |  | 1.2 |  | 
